Tests used:
fibronectin = test: Expression of extracellular matrix component fibronectin, RT-PCR in NIH3T3 cells; type: cell-based, mouse; details: 10 μM or 50 μM peptide, 24 hours, FIG. 2 and FIG. 3
Method: (§1) In this example, the aim was to confirm the effect of the peptide according to an example on improving endogenous skin aging, including improvement of wrinkles and enhancement of elasticity, etc., by evaluating the expression levels of collagen type 1 (Col1a1), fibronectin, and elastin, which are known components of the dermis.
(§2) Specifically, NIH3T3 cells were seeded in a 6-well plate at a density of 3×10^5 cells/well and cultured for 24 hours. Next, the cells were washed once with serum-free DMEM media, and 10 μM or 50 μM of a peptide consisting of an amino acid sequence of SEQ ID NO: 1 was dispensed into 1 mL of the serum-free media, and cultured in a CO2 incubator at 37° C. for 24 hours. Next, the culture was washed twice with PBS, and RNA was isolated from the culture using easy blue (iNtRON, Cat. No.: 17061, Korea). Next, using an RT kit (Enzynomics, Cat. NO.: RT200, Korea), the isolated RNA was reverse transcribed to synthesize the respective cDNA. Next, using the synthesized 1 μg cDNA, primers for Col1a1, fibronectin, or elastin, and a PCR kit (Enzynomics, Cat. No.: P581T, Korea), polymerase chain reaction (PCR) was performed. Meanwhile, in this example, an untreated group was used as a control group, and a group to which TGF-β1 was added was used as a positive control group, the nucleotide sequences of the primers used in this example are shown in Table 2 below.

collagen type 1 (Col1a1) = test: Expression of extracellular matrix component Col1a1, RT-PCR in NIH3T3 cells; type: cell-based, mouse; details: 10 μM or 50 μM peptide, 24 hours, FIG. 2 and FIG. 3
Method: as §1, §2

HaCaT cells [1] = test: Reduction of reactive oxygen species increased by ultraviolet rays, DCF-DA flow cytometry, HaCaT; type: cell-based; details: 50 μM or 1000 μM peptide, 15 J/cm2 ultraviolet rays, 24 hours, FL1 fluorescence, FIG. 9
Method: (§3) In this example, the aim was to confirm the effect of the peptide according to an embodiment on the antioxidant effect in damaged skin, by evaluating the change in the level of reactive oxygen species in skin cells increased by ultraviolet irradiation.
(§4) Specifically, NIH3T3 cells or HaCaT cells were seeded in a 6-well plate at a density of 5×10^5 cells/well and cultured for 24 hours. Next, the cells were washed once with serum-free DMEM media, and 50 μM or 1000 μM of a peptide consisting of an amino acid sequence of SEQ ID NO: 1 was dispensed into 1 mL of the serum-free media, and cultured in a CO2 incubator at 37° C. for […]. Next, the above culture was transferred to an e-tube, mixed with 1 ml of PBS, and dispensed into a well plate. Next, using a UV irradiator (VILBER LOURMAT, Cat No.: 3102-BSU, France), 6 J/cm2 ultraviolet rays were irradiated to NIH3T3 cells, and 15 J/cm2 ultraviolet rays were irradiated to HaCaT cells. Next, the PBS in the well plate was removed, 900 μL of the culture medium in which the peptides were dispensed was added, and the plate was cultured in a CO2 incubator at 37° C. for 24 hours. […] After washing the centrifuged cells with PBS, FL1 fluorescence values were measured through flow cytometry (FACS, BD, USA). […]

sirtuin-1 (SIRT-1) = test: Expression of skin barrier factor SIRT-1, RT-PCR in HaCaT cells; type: cell-based; details: 50 μM or 1000 μM peptide, 24 hours, FIG. 4 and FIG. 5
Method: (§5) In this example, the aim was to confirm the effect of the peptides according to an example on strengthening the skin barrier, by evaluating the expression levels of sirtuin-1 (SIRT-1) or aquaporin-3 (AQP3).
(§6) Specifically, HaCaT cells were seeded in a 6-well plate at a density of 3×10^5 cells/well and cultured for 24 hours. Next, the cells were washed once with serum-free DMEM media, and 50 μM or 1000 μM of a peptide consisting of an amino acid sequence of SEQ ID NO: 1 was dispensed into 1 mL of the serum-free media, and cultured in a CO2 incubator at 37° C. for 24 hours. Next, the culture was washed twice with PBS, and RNA was isolated from the culture using easy blue (iNtRON, Cat. No.: 17061, Korea). Next, using an RT kit (Enzynomics, Cat. NO.: RT200, Korea), the isolated RNA was reverse transcribed to synthesize the respective cDNA. Next, using the synthesized 1 μg cDNA, primers for SIRT-1 or AQP3, and a PCR kit (Enzynomics, Cat. No.: P581T, Korea), polymerase chain reaction (PCR) was performed. Meanwhile, in this example, an untreated group was used as a control group, and a group to which EGF was added was used as a positive control group, the nucleotide sequences of the primers used in this example are shown in Table 3 below.

NIH3T3 cells [2] = test: Reduction of reactive oxygen species increased by ultraviolet rays, DCF-DA flow cytometry, NIH3T3; type: cell-based, mouse; details: 50 μM or 1000 μM peptide, 6 J/cm2 ultraviolet rays, 24 hours, FL1 fluorescence, FIG. 8
Method: as §3, §4

aquaporin-3 (AQP3) = test: Expression of skin barrier factor AQP3, RT-PCR in HaCaT cells; type: cell-based; details: 50 μM or 1000 μM peptide, 24 hours, FIG. 4 and FIG. 5
Method: as §5, §6

NIH3T3 cells [3] = test: Proliferation of skin cells, MTT survival rate; type: cell-based, mouse; details: 50 μM or 100 μM peptide, 72 hours, FIG. 1
Method: In this example, the aim was to confirm the effect of a peptide according to an example on proliferation of skin cells, by evaluating changes in survival rate of NIH3T3 cells, which are mouse fibroblasts.
Specifically, NIH3T3 cells were seeded in a […] at a density of 1×10^4 cells/well and cultured for 24 hours. Next, the cells were washed once with serum-free DMEM media, and 50 μM or 100 μM of a peptide consisting of an amino acid sequence of SEQ ID NO: 1 was dispensed into 200 μL of the serum-free media, and cultured in a CO2 incubator at 37° C. for 72 hours. Next, the culture was washed twice with PBS, and MTT solution was dispensed into each well at a concentration of 0.5 mg/ml. Next, it was shaded from light and cultured in a CO2 incubator at 37° C. for 4 hours, and the absorbance at 540 nm was measured using a microplate reader (Molecular Devices, USA).

elastin = test: Expression of extracellular matrix component elastin, RT-PCR in NIH3T3 cells; type: cell-based, mouse; details: 10 μM or 50 μM peptide, 24 hours, FIG. 2 and FIG. 3
Method: as §1, §2

NIH3T3 cells [4] = test: Inhibition of apoptosis induced by ultraviolet rays, MTT survival rate, NIH3T3; type: cell-based, mouse; details: 50 μM or 100 μM peptide, 6 J/cm2 ultraviolet rays, FIG. 6
Method: (§7) In this example, the aim was to confirm the effect of the peptide according to an example on the inhibition of apoptosis or cell recovery of skin cells induced by ultraviolet rays, by evaluating the change in survival rate of skin cells whose apoptosis was induced by ultraviolet irradiation.
(§8) Specifically, NIH3T3 cells or HaCaT cells were seeded in a 96-well plate at a density of 1×10^4 cells/well and cultured for 24 hours. Next, the cells were washed once with serum-free DMEM media, and 50 μM or 100 μM of the peptide consisting of an amino acid sequence of SEQ ID NO: 1 was dispensed into 200 μL of the medium. The culture medium dispensed with the peptide was cultured in a CO2 incubator at 37° C. for 1 hour, transferred to an e-tube, mixed with 100 ul of PBS, and dispensed into a well plate. Next, using a UV irradiator (VILBER LOURMAT, Cat No.: 3102-BSU, France), 6 J/cm2 ultraviolet rays were irradiated to NIH3T3 cells, and […] ultraviolet rays were irradiated to HaCaT cells. Next, PBS in the well plate was removed, MTT (Sigma, Cat. No.: M2003, USA) solution was dispensed into each well at 0.5 mg/ml, and cultured in a CO2 incubator at 37° C. for […]. Next, the absorbance of the culture was measured at 540 nm using a microplate reader (Molecular Devices, USA). […]

HaCaT cells [5] = test: Inhibition of apoptosis induced by ultraviolet rays, MTT survival rate, HaCaT; type: cell-based; details: 50 μM or 100 μM peptide, 15 m J/cm2 ultraviolet rays, FIG. 7
Method: as §7, §8

For EVVDI [SEQ ID NO: 1], the expression of fibronectin (fibronectin) was “increased”, the “expression of Col1a1” value (collagen type 1 (Col1a1)) was “increased” and the “level of reactive oxygen species in keratinocytes increased by ultraviolet irradiation” value (HaCaT cells [1]) was “reduced”. The “expression of SIRT-1” value (sirtuin-1 (SIRT-1)) was “increased”, the “level of reactive oxygen species in fibroblasts increased by ultraviolet irradiation” value (NIH3T3 cells [2]) was “reduced” and the “expression of AQP3” value (aquaporin-3 (AQP3)) was “increased”. For the same substance, the “proliferation of fibroblasts (cell survival rate)” value (NIH3T3 cells [3]) was “promoted”, the expression of elastin (elastin) was “increased” and the “cell survival rate of fibroblasts reduced by ultraviolet irradiation” value (NIH3T3 cells [4]) was “restored”. For the same substance, the “cell survival rate of keratinocytes reduced by ultraviolet irradiation” value (HaCaT cells [5]) was “restored”.
